Assay results reported in the supplement of paper PMC11061612.

How the values were obtained:
AZD5991 = compound: Cc1c2c(nn1C)CSCc1cc(n(C)n1)CSc1cc(c3ccccc3c1)OCCCc1c(C(=O)O)n(C)c3c-2c(Cl)ccc13 [AZD5991]; conditions: max 1 µM
Summary of the method: (§1)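 Cancer cell lines were seeded into 1536-well plates in 7.5 μl medium (DMEM/F12 or RPMI, 10% FBS), held 24 hours at 37°C and 5% CO2, and dosed for 72 hours with final DMSO typically 0.2%. Luminescence from CellTiter-Glo 2.0, scaled between blank-well and DMSO-well means, served as viability. The single-agent IC50 was obtained from dose-response fits with a non-linear mixed effects model, each fit being a two-parameter logistic curve.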

AZD4320 = compound: CN(CC[C@H](CSC1=CC=CC=C1)NC2=C(C=C(C=C2)S(=O)(=O)NC(=O)C3=CC=C(C=C3)N4CCC(CC4)[C@H](C5=CC=CC=C5C6=CC=C(C=C6)Cl)O)S(=O)(=O)C(F)(F)F)CCO [AZD4320]; conditions: max 1 µM
Summary of the method: as §1

Selumetinib = compound: Cn1cnc2c(F)c(Nc3ccc(Br)cc3Cl)c(C(=O)NOCCO)cc21 [Selumetinib]; conditions: max 10 µM
Summary of the method: as §1

AZD1390 = compound: CC(C)n1c(=O)n(C)c2cnc3cc(F)c(-c4ccc(OCCCN5CCCCC5)nc4)cc3c21 [AZD1390]; conditions: max 0.3 µM
Summary of the method: as §1

Crizotinib = compound: C[C@@H](Oc1cc(-c2cnn(C3CCNCC3)c2)cnc1N)c1c(Cl)ccc(F)c1Cl [Crizotinib]; conditions: max 10 µM
Summary of the method: as §1

Palbociclib = compound: CC(=O)c1c(C)c2cnc(Nc3ccc(N4CCNCC4)cn3)nc2n(C2CCCC2)c1=O [Palbociclib]; conditions: max 10 µM
Summary of the method: as §1

Savolitinib = compound: C[C@@H](c1ccc2nccn2c1)n1nnc2ncc(-c3cnn(C)c3)nc21 [Savolitinib]; conditions: max 1 µM
Summary of the method: as §1

Doxorubicin = compound: COc1cccc2c1C(=O)c1c(O)c3c(c(O)c1C2=O)C[C@@](O)(C(=O)CO)C[C@@H]3O[C@H]1C[C@H](N)[C@H](O)[C@H](C)O1 [Doxorubicin]; conditions: max 1 µM
Summary of the method: as §1

AZD0156 = compound: CN(C)CCCOc1ccc(-c2ccc3ncc4c(c3c2)n(C2CCOCC2)c(=O)n4C)cn1 [AZD0156]; conditions: max 3 µM
Summary of the method: as §1

AZD5153 = compound: COc1nnc2ccc(N3CCC(c4ccc(OCCN5CCN(C)C(=O)[C@H]5C)cc4)CC3)nn12 [AZD5153]; conditions: max 1 µM
Summary of the method: as §1

AZD8186 = compound: C[C@@H](Nc1cc(F)cc(F)c1)c1cc(C(=O)N(C)C)cc2c(=O)cc(N3CCOCC3)oc12 [AZD8186]; conditions: max 3 µM
Summary of the method: as §1

Lapatinib = compound: CS(=O)(=O)CCNCc1ccc(-c2ccc3ncnc(Nc4ccc(OCc5cccc(F)c5)c(Cl)c4)c3c2)o1 [Lapatinib]; conditions: max 10 µM
Summary of the method: as §1

SG3199 = compound: CC1=CN2[C@@H](C1)C=NC3=CC(=C(C=C3C2=O)OC)OCCCCCOC4=C(C=C5C(=C4)N=C[C@@H]6CC(=CN6C5=O)C)OC [SG3199]; conditions: max 0.001 µM
Summary of the method: as §1

MK-2206 = compound: NC1(c2ccc(-c3nc4ccn5c(=O)[nH]nc5c4cc3-c3ccccc3)cc2)CCC1 [MK-2206]; conditions: max 10 µM
Summary of the method: as §1

Dasatinib = compound: CC1=C(C(=CC=C1)Cl)NC(=O)C2=CN=C(S2)NC3=CC(=NC(=N3)C)N4CCN(CC4)CCO [Dasatinib]; conditions: max 2 µM
Summary of the method: as §1

Prexasertib = compound: COc1cccc(OCCCN)c1-c1cc(Nc2cnc(C#N)cn2)n[nH]1 [Prexasertib]; conditions: max 1 µM
Summary of the method: as §1

Olaparib = compound: O=C(c1cc(Cc2n[nH]c(=O)c3ccccc23)ccc1F)N1CCN(C(=O)C2CC2)CC1 [Olaparib]; conditions: max 10 µM
Summary of the method: as §1

Venetoclax = compound: CC1(C)CCC(CN2CCN(c3ccc(C(=O)NS(=O)(=O)c4ccc(NCC5CCOCC5)c([N+](=O)[O-])c4)c(Oc4cnc5[nH]ccc5c4)c3)CC2)=C(c2ccc(Cl)cc2)C1 [Venetoclax]; conditions: max 1 µM
Summary of the method: as §1

Taselisib = compound: Cc1nc(-c2cn3c(n2)-c2ccc(-c4cnn(C(C)(C)C(N)=O)c4)cc2OCC3)n(C(C)C)n1 [Taselisib]; conditions: max 10 µM
Summary of the method: as §1

AZD7648 = compound: Cc1cc2ncnn2cc1Nc1ncc2c(n1)n(C1CCOCC1)c(=O)n2C [AZD7648]; conditions: max 10 µM
Summary of the method: as §1

Trametinib = compound: CC(=O)Nc1cccc(-n2c(=O)n(C3CC3)c(=O)c3c(Nc4ccc(I)cc4F)n(C)c(=O)c(C)c32)c1 [Trametinib]; conditions: max 1 µM
Summary of the method: as §1

Gefitinib = compound: COc1cc2ncnc(Nc3ccc(F)c(Cl)c3)c2cc1OCCCN1CCOCC1 [Gefitinib]; conditions: max 10 µM
Summary of the method: as §1

AZD6738 = compound: C[C@@H]1COCCN1C2=NC(=NC(=C2)C3(CC3)[S@](=N)(=O)C)C4=C5C=CNC5=NC=C4 [AZD6738]; conditions: max 10 µM
Summary of the method: as §1

Capivasertib = compound: C1CN(CCC1(C(=O)N[C@@H](CCO)C2=CC=C(C=C2)Cl)N)C3=NC=NC4=C3C=CN4 [Capivasertib]; conditions: max 10 µM
Summary of the method: as §1

Alisertib = compound: COc1cc(Nc2ncc3c(n2)-c2ccc(Cl)cc2C(c2c(F)cccc2OC)=NC3)ccc1C(=O)O [Alisertib]; conditions: max 10 µM
Summary of the method: as §1

SN-38 = compound: CCc1c2c(nc3ccc(O)cc13)-c1cc3c(c(=O)n1C2)COC(=O)[C@]3(O)CC [SN-38]; conditions: max 0.3 µM
Summary of the method: as §1

AZD1775 = compound: C=CCn1c(=O)c2cnc(Nc3ccc(N4CCN(C)CC4)cc3)nc2n1-c1cccc(C(C)(C)O)n1 [AZD1775]; conditions: max 3 µM
Summary of the method: as §1

AZD2811 = compound: CCN(CCO)CCCOc1ccc2c(Nc3cc(CC(=O)Nc4cccc(F)c4)[nH]n3)ncnc2c1 [AZD2811]; conditions: max 1 µM
Summary of the method: as §1

Cell Line | IC50, cell viability 72 h (AZD5991) [nM] | IC50, cell viability 72 h (AZD4320) [nM] | IC50, cell viability 72 h (Selumetinib) [nM] | IC50, cell viability 72 h (AZD1390) [nM] | IC50, cell viability 72 h (Crizotinib) [nM] | IC50, cell viability 72 h (Palbociclib) [nM] | IC50, cell viability 72 h (Savolitinib) [nM] | IC50, cell viability 72 h (Doxorubicin) [nM] | IC50, cell viability 72 h (AZD0156) [nM] | IC50, cell viability 72 h (AZD5153) [nM] | IC50, cell viability 72 h (AZD8186) [nM] | IC50, cell viability 72 h (Lapatinib) [nM] | IC50, cell viability 72 h (SG3199) [nM] | IC50, cell viability 72 h (MK-2206) [nM] | IC50, cell viability 72 h (Dasatinib) [nM] | IC50, cell viability 72 h (Prexasertib) [nM] | IC50, cell viability 72 h (Olaparib) [nM] | IC50, cell viability 72 h (Venetoclax) [nM] | IC50, cell viability 72 h (Taselisib) [nM] | IC50, cell viability 72 h (AZD7648) [nM] | IC50, cell viability 72 h (Trametinib) [nM] | IC50, cell viability 72 h (Gefitinib) [nM] | IC50, cell viability 72 h (AZD6738) [nM] | IC50, cell viability 72 h (Capivasertib) [nM] | IC50, cell viability 72 h (Alisertib) [nM] | IC50, cell viability 72 h (SN-38) [nM] | IC50, cell viability 72 h (AZD1775) [nM] | IC50, cell viability 72 h (AZD2811) [nM]
NUGC-3 (Gastric Carcinoma) | > 1000 | > 1000 | > 10000 | > 300 | > 10000 | > 10000 | > 1000 | 128 | > 3000 | > 1000 | > 3000 | 5310 | > 1 | > 10000 | > 2000 | 193 | > 10000 | > 1000 | 3750 | > 10000 | 592 | > 10000 | 6490 | > 10000 | > 10000 | 5.05 | 729 | > 1000
HGC-27 (Gastric Carcinoma) | > 1000 | > 1000 | > 10000 | > 300 | 3250 | 3210 | > 1000 | 146 | > 3000 | 54.8 | 2380 | 4940 | > 1 | 501 | 349 | 76.8 | > 10000 | > 1000 | 61.1 | > 10000 | > 1000 | > 10000 | 2840 | 346 | 164 | 14.6 | 2240 | 94.1
PWR-1E (Non-Cancerous) | > 1000 | > 1000 | > 10000 | > 300 | 8500 | > 10000 | > 1000 | > 1000 | > 3000 | 343 | > 3000 | > 10000 | > 1 | > 10000 | 371 | 28.1 | > 10000 | > 1000 | 7810 | > 10000 | > 1000 | > 10000 | 2820 | > 10000 | 1510 | 13 | 525 | 827
KMOE-2 (Acute Myeloid Leukemia) | 773 | 409 | 104 | > 300 | > 10000 | > 10000 | > 1000 | 881 | > 3000 | 102 | > 3000 | > 10000 | > 1 |  | > 2000 | 55.8 | > 10000 | > 1000 | 9870 | > 10000 | 1.74 | > 10000 | 8120 | > 10000 | 465 | 40 | 411 | > 1000
C-4-I (Cervical Carcinoma) | 288 | > 1000 | > 10000 | > 300 | > 10000 | > 10000 | > 1000 | 302 | > 3000 | 889 | > 3000 | 7230 | > 1 |  | > 2000 | 18.5 | > 10000 | > 1000 | 2550 | > 10000 | 773 | > 10000 | 2520 | > 10000 | 3420 | 41 | 195 | > 1000
HSC-4 (Oral Cavity Carcinoma) | > 1000 | > 1000 | > 10000 | > 300 | > 10000 | > 10000 | > 1000 | > 1000 | > 3000 | > 1000 | > 3000 | > 10000 | > 1 | > 10000 | > 2000 | 205 | > 10000 | > 1000 | > 10000 | > 10000 | > 1000 | > 10000 | 7280 | > 10000 | > 10000 | 11.2 | > 3000 | > 1000
NCI-H1915 (Non-Small Cell Lung Carcinoma) | > 1000 | > 1000 | 3910 | > 300 | > 10000 | > 10000 | > 1000 | > 1000 | > 3000 | > 1000 | > 3000 | > 10000 | > 1 |  | 567 | 335 | > 10000 | > 1000 | > 10000 | > 10000 | 34.7 | > 10000 | > 10000 | > 10000 | 5150 | 61.6 | 2870 | > 1000
SCC-15 (Oral Cavity Carcinoma) | > 1000 | > 1000 | > 10000 | > 300 | > 10000 | > 10000 | > 1000 | > 1000 | > 3000 | > 1000 | > 3000 | > 10000 | > 1 |  | 1360 | 682 | > 10000 | > 1000 | 2000 | > 10000 | > 1000 | > 10000 | > 10000 | > 10000 | > 10000 | 66.1 | > 3000 | > 1000
HOP-62 (Lung Adenocarcinoma) | > 1000 | > 1000 | 8920 | > 300 | > 10000 | > 10000 | > 1000 | > 1000 | > 3000 | 243 | > 3000 | > 10000 | > 1 |  | 956 | 225 | > 10000 | > 1000 | > 10000 | > 10000 | 200 | > 10000 | > 10000 | > 10000 | 8660 | 101 | > 3000 | > 1000
OSC-20 (Oral Cavity Carcinoma) | > 1000 | > 1000 | > 10000 | > 300 | > 10000 | > 10000 | > 1000 | > 1000 | > 3000 | > 1000 | > 3000 | > 10000 | > 1 |  | > 2000 | 458 | > 10000 | > 1000 | 9680 | > 10000 | > 1000 | > 10000 | > 10000 | > 10000 | > 10000 | 40.4 | 1220 | > 1000
